Measurements taken from US20190153409A1, “COMPOSITIONS COMPRISING PARTICLES AND METHODS FOR TREATING CANCER” (priority 2017, published 2019).

What was measured:
p53 = p53 transcription activity: GFP reporter in HCT116 cells transfected with RGC-mazE-IRES-GFP plasmid; format: cell-based, human
Experimental: In order to test the ability of p53 to bind to its responsive element and stimulate transcription, HCT116 cells were transfected with RGC-mazE-IRES-GFP plasmid. Since p53 is degraded in un-activated cells, the present inventors used Quercetin, a ubiquitous bioactive plant flavonoid that is able to induce p53 phosphorylation, stabilization and total p53 protein accumulation. Another widely used p53 inducer is the antimetabolite agent 5-FU. P53 transcription activity was evaluated by measuring the expression of the downstream reporter gene, GFP.

HCT116 cells [1] = assay: Cell toxicity in transfected HCT116 cells
[2] = target: mCherry-MazF (E. coli MazF ribonuclease fused to the C terminus of the monomeric red fluorescence protein mCherry) (E. coli) (UniProt P0AE70); assay: cell-based or functional assay
Sequence of mCherry-MazF (E. coli MazF ribonuclease fused to the C terminus of the monomeric red fluorescence protein mCherry) (E. coli) (P0AE70 whole entry, the tested form may be a part): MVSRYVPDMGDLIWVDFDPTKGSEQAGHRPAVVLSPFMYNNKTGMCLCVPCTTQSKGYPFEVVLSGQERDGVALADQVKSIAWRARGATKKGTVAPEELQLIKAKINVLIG

HCT116 cells [3] = system: HCT116 cells

Which “increase of GFP expression” value (p53; 50 μM) does the source give for O=c1c(O)c(-c2ccc(O)c(O)c2)oc2cc(O)cc(O)c12 [Quercetin] here?
Its value is “about 10 folds”.

And the “cell death (cell toxicity)” value (HCT116 cells [1])?
The value was 60%.

How did the yield of mCherry-MazF adenovirus in HEK293 packaging cells that constitutively express MazE, against parental HEK293 cells (orders of magnitude) [2] turn out when “E. coli antitoxin MazE (from UniProt P0AE72 1-82)” was run?
The yield of mCherry-MazF adenovirus in HEK293 packaging cells that constitutively express MazE, against parental HEK293 cells (orders of magnitude) was 2.

Which GFP expression levels (p53; 10 μM, compared with Quercetin) does the source give for O=c1[nH]cc(F)c(=O)[nH]1 [5-FU] here?
The GFP expression levels was “significantly higher expression levels of GFP”.

And the cell toxicity (HCT116 cells [3])?
Its cell toxicity is “no toxicity”.
